Results reported in US5882881A, “Inhibition of cyst formation by cytoskeletal specific drugs” (priority 1998, dated 1999).

Experiments:
Murine CPK Cells [1] = assay: In vitro cyst formation and cyst size in suspension culture of murine CPK cells; type: cell-based, mouse
Experimental: At 10, 21 and 28 days after birth, mice having congenital polycystic kidney disease (CPK) and their phenotypically normal littermates were sacrificed by cervical dislocation. Kidneys were harvested aseptically and washed with DMEM/F12 (Sigma Chemical Co., St. Louis, Mo.) in a 1:1 mix. Each decapsulated kidney was chopped into cubes (1 mm) and incubated in 5 ml of collagenase solution composed of 1 mg/ml collagenase type IV (Worthington Biochemical Corporation, Freehold, N.J.), 1 mg/ml egg white trypsin inhibitor (Worthington) in 1:1 DMEM/F12.
The top 12 mls, which contained both single cells and aggregates of up to 10 cells, as assessed by inverted phase-ontrast microscopy, were placed in 2 ml aliquots in the wells of plastic culture plates (Corning, N.Y.) precoated with 1% agarose in DMEM:F12 (2 ml in each well of a 6-well plate; 1 ml in each well of a 24-well plate). Cell samples were digested with further incubation for 10 minutes in 0.05% trypsin and 0.53 mM EDTA (Gibco, BRL Gaithesburg, Md.) at 37° C. All cultures were plated at a final density of 1-3×10^4 cell, per well. For growth studies of monolayer cells, identical preparations were grown on the plastic surface of the culture plates. Both the monolayers and the cell suspensions were incubated at 37° C. in a moisture saturated incubator in 5% CO2 and air.
I used the in vitro cyst formation system of the present invention to analyze compounds that affect the process of cyst formation. To determine the therapeutic effectiveness of an agent, cyst-forming cells are suspended in a medium to which the agent has been added. These cells are then cultured on a solid phase without formation of a layer of cells on the surface, such as in the assay system described in Example 1. The extent to which the cells actually form cysts can be detected and compared to the extent of cyst formation expected if no agent were added. If the amount of cyst formation is lower than expected, then the agent is a good candidate for therapeutic intervention of cystic diseases.
(§1) The effects of various metabolic inhibitors on cyst formation were studied in cultures derived from day 21 postnatal CPK mice. […] Taxol (25 μM), a microtubule specific inhibitor, was from Calbiochem (La Jolla, Calif.). All other chemicals were obtained from Sigma Chemical Co. Cytosine arabinoside was added at the final concentration of 20 μg/ml to inhibit DNA synthesis; α-amanitin at 100 ng/ml to inhibit RNA synthesis; cycloheximide at 40 μg/ml to inhibit protein synthesis; amiloride at 1 mM to inhibit the renal epithelial Na^+ -H^+ exchange; ouabain at 0.5 mM to inhibit Na^+ -K^+ -ATPase; brefeldin-A at 10 μg/ml to inhibit transport of surface proteins; griseofulvin at 350 μM to inhibit microtubule function; colchicine at 10 μM to inhibit microtubule polymerization; and cytochalasin-B and cytochalasin-D at 10 μM to depolymerize actin filaments.
(§2) In the presence of these metabolic inhibitors in vitro, cyst formation was noted to be either present or absent; if present, the diameters of 20 cysts from a 0.2 ml aliquot were measured. In the same samples, ^3 H-dThd incorporation was also measured as described above. […] After each wash, cell clusters were collected by centrifuging at 200×g for 1 minute and the supernatant discarded. Washed cell clusters were resuspended in the original volume of growth medium without inhibitors, placed in agarose coated wells and incubated at 37° C. in a moisture saturated incubator in 5% CO2 and air.
(§3) In this table, the mean cyst size is reported as ±SD with a measurement of twenty cysts. The ^3 H-dThd incorporation is reported as ±SD using measurements of three wells. The * indicates […] versus control. […] The entries listed as "NA" in the table indicate data that is not available.

Murine CPK Cells [2] = assay: 3H-thymidine incorporation (DNA synthesis) in CPK cell suspension culture; type: cell-based, mouse; details: ± SD, three wells; concentrations as in Table II; control 100 ± 11; 1440 min
Experimental: Growth studies were performed on kidney cells derived from day 10, 21 and 28 postnatal CPK mice and their normal littermates. Immediately after cells were placed in suspension or monolayer culture, 3 μCi of ^3 H-thymidine (^3 H-dThd, specific activity 45 Ci/mmol, Amersham, Ill.) was placed in each well of the culture plate. DNA synthesis was assessed by incorporation of ^3 H-dThd over the 24 hours of culture, and trichloroacetic acid-insoluble. radioactivity was expressed as cpm/μg protein. Protein was assayed with the BCA reagent as described by the manufacturer (Pierce, Rockford, Ill.). At 24 hours of culture, an aliquot (0.2 ml) of the suspension was removed and the number of cysts counted using an inverted microscope. The number of cysts was expressed as a ratio factored for the total number of cells in the suspension at 24 hours of culture. Cyst diameter was measured at 100× using an eyepiece micrometer.
as §1, §2, §3

[3] = tested on: normal phenotype, heterozygous mice; assay: Body weight of normal phenotype heterozygous C57BL/6 mice (FIG. 3A); type: in vivo, mouse; details: versus methotrexate or non-treated
Excerpt: […]. The body weights of untreated, taxol treated and methotrexate treated C57BL/6j mice between day 10 and day 45 after birth is shown in A. The body weights of untreated, taxol treated and methotrexate treated cpk mice are shown in B. Results in each group are the mean of 6 animals. Untreated and methotrexate treated cpk mice died between days 26 and 28. […].
In a related procedure I treated both normal C57BL/6 and cpk mice at 11-14 days of age with either taxol or methotrexate as described above. Six untreated mice served as controls in this experiment.

cpk mice kidney = type: in vivo, mouse; details: weekly taxol for 200 days
Experimental: […]. Untreated and methotrexate (MTX) treated polycystic cpk mice all died before 30 days of age. […]. The dotted line starting at day 120 indicates the number and age of apparently healthy taxol treated polycystic mice that were sacrificed for histology studies. Pairs of mice were sacrificed at 120 days, 182 days and 210 days of age.
Eleven homozygous cpk mice, raised and identified as in Example 6 were treated with 15 μl of 10 mg/ml taxol in DMSO through intraperitoneal injection beginning 11-14 days after birth. Following the first treatment, the mice were administered with the same treatment once every week thereafter. As controls, 6 cpk mice were treated with 15 μl intraperitoneal injections of DMSO beginning 10-12 days after birth and then once every week thereafter.

Murine CPK Cells [4] = assay: In vitro cyst formation and cyst size in suspension culture of murine CPK cells; type: cell-based, mouse; details: day 21, 24 h, final concentration per Table II (cytosine arabinoside 20 μg/ml, α-amanitin 100 ng/ml, cycloheximide 49 μg/ml, ouabain 1 mM, amiloride 1 mM, brefeldin-A 10 μg/ml, griseofulvin 350 μM, colchicine 10 μM, vinblastine 1 μM, nocodazole 30 μM, taxol 25 μM, cytochalasins 10 μM)
[5] = humans; approximately; cited from earlier work

## CC(=O)O[C@H]1C(=O)[C@@]2(C)[C@H]([C@H](OC(=O)c3ccccc3)[C@]3(O)C[C@H](OC(=O)[C@H](O)[C@@H](NC(=O)c4ccccc4)c4ccccc4)C(C)=C1C3(C)C)[C@]1(OC(C)=O)CO[C@@H]1C[C@@H]2O [Taxol]
Murine CPK Cells [1]; mean ± SD of twenty cysts, concentrations as in Table II, control 71 ± 22
  Cyst Size: 0 μm
Murine CPK Cells [1]; murine CPK cells, 24 h suspension culture, ouabain 0.5 mM, also 1 mM, b155 taxol 25 μM, colchicine 10 μM, vinblastine 1 μM, cytochalasins 10 μM, model species not given
  cyst formation (in words): reversibly inhibited in vitro cyst formation in both models
Murine CPK Cells [2]
  ^3 H-dThd Incorporation: 90 ± 11 % control
[3]
  weight gain (in words): gained less weight
Cpk mice kidney
  kidney histology of control mice: normal kidney histology
Murine CPK Cells [4]
  Cyst Formation (+/-): -
[5]
  in vivo half-life: 6 to 12 h
